In PubChem BioAssay AID1418 (Emory University Molecular Libraries Screening Center, 2008):
Activity calls are given as the source filed them. The rule behind the calls is not given here.

Target: Induced myeloid leukemia cell differentiation protein Mcl-1 (Homo sapiens) (UniProt Q07820)
Test: blockers of Bid binding to Mcl-1 – biochemical, TR-FRET, dose response (AID 1418)
Details: Mcl-1/Bid peptide binding, TR-FRET (europium/Dy647), 2 hr

Sequence of Induced myeloid leukemia cell differentiation protein Mcl-1 (Homo sapiens) (Q07820 whole entry, looked up): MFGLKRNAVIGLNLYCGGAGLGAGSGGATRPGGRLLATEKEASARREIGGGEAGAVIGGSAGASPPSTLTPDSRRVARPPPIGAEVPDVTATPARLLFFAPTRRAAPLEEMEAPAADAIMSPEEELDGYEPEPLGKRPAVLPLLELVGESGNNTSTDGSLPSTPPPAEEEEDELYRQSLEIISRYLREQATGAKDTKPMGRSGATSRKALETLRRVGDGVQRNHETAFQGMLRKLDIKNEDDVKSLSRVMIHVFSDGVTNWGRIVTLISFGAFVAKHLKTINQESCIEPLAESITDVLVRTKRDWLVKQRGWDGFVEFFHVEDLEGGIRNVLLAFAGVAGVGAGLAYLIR

Row | Compound | IC50
1 | COc1ccc2c(=O)c3c(=O)n(CCc4ccccc4)c(C(C)C)nc3oc2c1 | > 54 µM (inactive)
2 | CN(CC(=O)Nc1cccc(C#N)c1)Cc1ccc(Cl)cc1 | > 54 µM (inactive)
3 | Cc1n[nH]c(=S)c2nn(-c3ccccc3)c(C)c12 | > 54 µM (inactive)
4 | O=C(CSc1nnc(COc2cccc3cccnc23)o1)N1CCc2ccccc21 | inactive
5 | O=[N+]([O-])c1cc(Br)c(O)c(/C=N/Nc2nc3ccccc3s2)c1 | 1.16 µM
6 | O=C1C(=Cc2ccc(Br)o2)C(=O)c2ccccc21 | 3.15 µM
7 | O=C(CSc1nccc(=O)[nH]1)c1ccccc1Br | > 54 µM (inactive)
8 | O=c1oc2ccccc2n1CCn1c2ccccc2c2nc3ccccc3nc21 | 8.21 µM
9 | Cc1ccc(S(=O)(=O)N(CC(=O)N/N=C/c2cccc(Cl)c2)c2cccc3cccnc23)cc1 | > 54 µM (inactive)
10 | Clc1ccccc1CN1CCc2sccc2C1 | > 54 µM (inactive)
11 | Brc1cccc(OCCOCCn2ccnc2)c1 | > 54 µM (inactive)
12 | O=C(CN1C(=O)c2cccc3cccc1c23)Nc1ccc(S(=O)(=O)N2CCOCC2)cc1 | > 54 µM (inactive)
13 | COC(=O)c1ccccc1NC(=O)COC(=O)/C=C/c1ccco1 | > 54 µM (inactive)
14 | COc1ccc(-c2cc3nc4ccccc4n3c(N)c2C#N)cc1 | 2.76 µM
15 | CN1C(=O)C(=Cc2sc(=O)n(-c3ccccc3)c2N2CCCCC2)C(=O)N(C)C1=O | > 54 µM (inactive)
16 | N=c1oc2cc(O)ccc2cc1C(=O)Nc1nc2ccccc2s1 | > 54 µM (inactive)
17 | CC(C)(C)C(O)C(Oc1ccc(Cl)cc1)n1cncn1 (stereo not given) | > 54 µM (inactive)
18 | Brc1ccccc1 | > 54 µM (inactive)
19 | O=C(CN1C(=O)/C(=C2\SC(=S)N(C3CCS(=O)(=O)C3)C2=O)c2ccccc21)Nc1ccc(F)cc1 (stereo not given) | 0.72 µM
20 | COc1ccc(Cl)cc1C(Nc1cccnc1)c1ccc2cccnc2c1O (stereo not given) | 0.62 µM
21 | c1ccc(CSc2nnc(-c3ccco3)c(-c3ccco3)n2)cc1 | 10.2 µM
22 | O=C(NCCc1ccccc1)C1CCN(S(=O)(=O)c2ccc(-c3nn[nH]n3)cc2)CC1 | > 54 µM (inactive)
23 | CCNC(=O)c1cc(S(=O)(=O)N(C)C)c(Cl)cc1Cl | > 54 µM (inactive)
24 | O=C(COC(=O)c1ccc2ccccc2c1)NCCCc1ccccc1 | > 54 µM (inactive)
25 | O=C(Cc1ccc(F)cc1)Nc1nnc(SCC(=O)NC2CCCC2)s1 | > 54 µM (inactive)

Row | Compound | IC50
26 | Cc1ccc(Nc2cc(=O)n(C3CCCCC3)c(=O)[nH]2)cc1C | > 54 µM (inactive)
27 | Cc1ccccc1NC(=O)c1c(C)[nH]c(=S)c(C#N)c1-c1ccc(Cl)cc1 | > 54 µM (inactive)
28 | C/C(=N/NC(=O)c1cc(-c2cccc([N+](=O)[O-])c2)n[nH]1)c1ccc(Cl)cc1 | 2.27 µM
29 | O=[N+]([O-])C(=c1ccc2c(c1)N1C3=C(CCCC3)CC3CCCCC31N=2)[N+](=O)[O-] (stereo not given) | 0.73 µM
30 | CCc1ccc(C(CC(=O)c2ccc(Cl)cc2)C(=O)O)cc1 (stereo not given) | > 54 µM (inactive)
31 | COc1ccc2[nH]c3c4c(ccc3c2c1)C(=O)C=CC4=O | 2.51 µM
32 | CC(NCc1ccc2c(c1)OCO2)C(=O)NC1CCCc2ccccc21 (stereo not given) | > 54 µM (inactive)
33 | COc1ccc(CN2C(=O)c3cccnc3C2O)cc1 (stereo not given) | 0.71 µM
34 | COc1cc(/C=C2/SC(N)=NC2=O)ccc1Oc1ccc([N+](=O)[O-])cc1[N+](=O)[O-] | 3.5 µM
35 | C=CCOC(=O)c1cc(-c2ccc(/C=C3\C(=O)NC(=O)C(C#N)=C3C)o2)ccc1Cl | 0.53 µM
36 | CN1CCN2c3ccc(N)cc3CC3(C(=O)NC(=O)NC3=O)C2C1 (stereo not given) | 0.48 µM
37 | COc1ccc(NC(C)C(=O)Nc2ccc(C#N)cc2)cc1Cl (stereo not given) | > 54 µM (inactive)
38 | O=C(Oc1ccc(Nc2ncnc3ccccc23)cc1)c1cccnc1 | > 54 µM (inactive)
39 | Cc1sc(NC(=O)c2ccccc2)c(C(=O)N2CCN(C)CC2)c1C | > 54 µM (inactive)
40 | CC1C(=O)CCN(C(C)C)C1C (stereo not given) | > 54 µM (inactive)
41 | O=C1CSC(c2ccncc2)N1Cc1ccccc1 (stereo not given) | > 54 µM (inactive)
42 | CCCN(CCC)C(C(=O)Nc1cccc(OC)c1)c1ccccc1 (stereo not given) | > 54 µM (inactive)
43 | Oc1c(C(c2ccc(Cl)cc2)N2CCCC2)cc(Cl)c2cccnc12 (stereo not given) | 1.16 µM
44 | CC(C)c1[nH]nc2c1C(c1cccnc1)C(C#N)=C(N)O2 (stereo not given) | > 54 µM (inactive)
45 | CCOC(=O)c1c2ccc(OCC(=O)N/N=C/c3ccc(C)cc3)cc2n2ccccc12 | 6.23 µM
46 | NC(=O)N1CCN(C(=O)c2ccco2)CC1 | > 54 µM (inactive)
47 | S=C(NNc1ccnc2cc(Cl)ccc12)Nc1ccc(Cl)cc1Cl | 2.22 µM
48 | O=c1c2cnn(-c3ccccc3)c2nc(-c2cccs2)n1-c1cccc(Cl)c1 | > 54 µM (inactive)
49 | Cc1nn(Cc2ccccc2)c(C)c1NC(=O)CSc1nc(-c2ccccc2)nc2c1cnn2-c1ccccc1 | 0.47 µM
50 | O=c1c(O)cccc2cc(O)c(O)c(O)c12 | 0.92 µM

Row | Compound | IC50
51 | CCCc1cc(=O)[nH]c(SCC(=O)c2c(C)[nH]c3ccccc23)n1 | > 54 µM (inactive)
52 | COc1ccc(-c2ccc(/C=C3/C(=N)N4C=CSC4=NC3=O)o2)c([N+](=O)[O-])c1 | 1.46 µM
53 | O=C1NC(CCc2ccccc2)C(=O)N1Cc1ccccc1Cl (stereo not given) | > 54 µM (inactive)
54 | O=C(CNC(=O)c1ccc([N+](=O)[O-])cc1)N/N=C\c1ccc(OC(=O)c2ccccc2)cc1 | 11 µM
55 | O=C(O)c1ccc(N2C(=O)/C(=C/c3ccc(-c4ccc([N+](=O)[O-])cc4)o3)C=C2c2ccccc2)cc1 | 1.42 µM
56 | CCOc1cc(C(=S)N2CCOCC2)ccc1O | > 54 µM (inactive)
57 | CCOc1ccccc1NC(=O)CN(C)S(=O)(=O)c1cccc2nsnc12 | > 54 µM (inactive)
58 | COc1ccc(CN2CCN(c3ccccc3F)CC2)cc1O | > 54 µM (inactive)
59 | CCOc1ccc(C(Nc2cccnc2)c2cc(Cl)c3cccnc3c2O)cc1 (stereo not given) | 0.51 µM
60 | Cc1ccc(C(C)C)cc1NC(=O)Nc1ccc([N+](=O)[O-])cc1 | > 54 µM (inactive)
61 | Cn1c(=O)c2c(nc(Cc3ccc(N)cc3)n2C)n(C)c1=O | > 54 µM (inactive)
62 | COc1cc(/C=N/Nc2nnc3c(n2)[nH]c2ccccc23)ccc1O | 2.66 µM
63 | O=C(CCN1CCc2ccccc2C1)Nc1cccc(F)c1 | > 54 µM (inactive)
64 | c1ccc2c(c1)ncn2CCCCOc1ccc2c(c1)CCC2 | > 54 µM (inactive)
65 | CC(=O)Nc1ccc(S(=O)(=O)NCc2ccccn2)cc1 | > 54 µM (inactive)
66 | CN(Cc1ccccc1)Cc1nc2c([nH]1)c(=O)[nH]c(=O)n2C | > 54 µM (inactive)
67 | O=C(/C=C/N1CCOCC1)c1cc2ccccc2o1 | > 54 µM (inactive)
68 | O=C(CSc1nnc(SCc2cccc3ccccc23)s1)N=Nc1c(O)[nH]c2ccccc12 | 3.51 µM
69 | COc1ccc2[nH]c(=O)c(CNC3CCCCC3)cc2c1 | > 54 µM (inactive)
70 | O=C(/C=C/Nc1cccc(F)c1)c1ccco1 | > 54 µM (inactive)
71 | Cc1cc(N/N=C/c2ccc(O)c(C)c2O)nc(-c2ccccc2O)n1 | 9.06 µM
72 | COC(=O)c1cccc(NC(=S)Nc2cccc(Cl)c2Cl)c1 | > 54 µM (inactive)
73 | COc1ccc(Cc2nnc(NC(=O)Cc3cccs3)s2)cc1OC | > 54 µM (inactive)
74 | COc1ccc(N2C(=O)/C(=C/C=C/c3ccccc3[N+](=O)[O-])C(=O)NC2=S)cc1 | 1.05 µM
75 | COc1ccccc1C(=O)NC(=S)NNC(=O)c1sc2ccccc2c1Cl | 1.7 µM
